The source of these data is patent US8106055B2, “Substituted amide compounds” (Gruenenthal GmbH, priority 2007, dated 2012).

In assay [1] the target is T1, human bradykinin 1 receptor (B1R) (Homo sapiens, UniProt P46663).
T1 construct: expressed in transfected cells; host or cells: CHO K1 cells
T1 sequence (P46663 1-353): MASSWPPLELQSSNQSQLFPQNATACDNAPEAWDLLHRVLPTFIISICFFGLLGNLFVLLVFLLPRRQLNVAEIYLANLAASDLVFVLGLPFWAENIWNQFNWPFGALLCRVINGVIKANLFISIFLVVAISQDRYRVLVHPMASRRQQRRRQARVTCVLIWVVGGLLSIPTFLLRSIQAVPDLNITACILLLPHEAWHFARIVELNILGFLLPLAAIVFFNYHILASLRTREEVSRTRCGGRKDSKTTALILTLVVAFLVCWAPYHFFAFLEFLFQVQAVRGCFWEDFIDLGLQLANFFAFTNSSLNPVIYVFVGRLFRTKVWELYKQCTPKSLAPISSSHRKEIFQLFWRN
Description: Functional investigation on the human bradykinin 1 receptor (B1R), Ca2+ FLIPR assay in CHO K1 hB1R cells. In kind it is cell-based. Summed up: (§1)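 Stably transfected CHO K1 cells loaded with Fluo-4; FLIPR Ca2+ fluorescence peak (ex 488/em 540 nm). Compound added first (agonism vs Lys-Des-Arg9-bradykinin ≥50 nM human, Des-Arg9-bradykinin 10 μM rat), then after 10-20 min agonist at EC80; antagonism as % inhibition, IC50 from concentration series, n=2-3, N≥2.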

Assay [2] addresses T2, bradykinin 1 receptor (B1R) of the rat (Rattus norvegicus, UniProt P97583).
T2 construct: expressed in transfected cells; host or cells: CHO K1 cells
T2 sequence (P97583 1-337): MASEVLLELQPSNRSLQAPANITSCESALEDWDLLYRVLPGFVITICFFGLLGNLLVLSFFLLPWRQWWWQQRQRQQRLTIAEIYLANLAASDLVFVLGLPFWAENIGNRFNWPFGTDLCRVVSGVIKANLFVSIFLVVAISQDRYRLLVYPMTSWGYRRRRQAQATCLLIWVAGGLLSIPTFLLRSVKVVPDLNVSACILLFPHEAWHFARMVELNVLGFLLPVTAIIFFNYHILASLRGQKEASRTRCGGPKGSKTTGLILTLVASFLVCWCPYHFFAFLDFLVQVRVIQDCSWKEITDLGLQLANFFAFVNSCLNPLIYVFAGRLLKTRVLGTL
The assay is described as follows: Functional investigation on the rat bradykinin 1 receptor (B1R), Ca2+ FLIPR assay in CHO K1 rB1R cells. In kind it is cell-based. Summed up: as §1

Where [3] appears, read: CHO-K1, B1R antagonism human, test substance 10 μM, Ca2+ FLIPR, CHO K1 hB1R cells, read-out: B1R Ant. h [10 μM] % Inhibition.
[4] abbreviates: CHO-K1, B1R antagonism rat, test substance 10 μM, Ca2+ FLIPR, CHO K1 rB1R cells, read-out: B1R Ant. r [10 μM] % Inhibition.

Structures are written as SMILES. Where two headings read alike, the source gives them in different places.

Usually inhibition stands for the relative decrease from the control value, in per cent. Regarding `CN(C)C(c1cccs1)C1CCC(NC(=O)COCCN(C)S(=O)(=O)c2ccc(Cl)cc2)CC1` (stereo not drawn) [Example 83, 2-(2-(4-chloro-N-methylphenylsulfonamido)ethoxy)-N-(4-((dimethylamino) (thiophen-2-yl)methyl)cyclohexyl)acetamide], the inhibition at 10 µM in assay [1] (setting [3]) stood at 7%; in assay [2] (setting [4]) it was 11%.
With `Cc1cc(C)c(S(=O)(=O)N(C)CCOCC(=O)NCC2CCC(C(c3cccs3)N(C)C)CC2)c(C)c1` (stereo not drawn) [Example 57, N-((4-((dimethylamino)(thiophen-2-yl)methyl)cyclohexyl)methyl)-2-(2-(N,2,4,6-tetramethylphenylsulfonamido)ethoxy)acetamide], the results for the inhibition at 10 µM in assay [1] (setting [3]) and in assay [2] (setting [4]) were 82% and 35%, respectively.
On the same counts, the results for `COc1cc(C)c(S(=O)(=O)N(C)CCOCC(=O)NCCC2CCC(C(c3cccs3)N(C)C)CC2)c(C)c1` (stereo not drawn) [Example 84, N-(2-(4-((dimethylamino)(thiophen-2-yl)methyl)cyclohexyl)ethyl)-2-(2-(4-methoxy-N,2,6-trimethylphenylsulfonamido)ethoxy)acetamide] are 104% and 103%.
`CN(C)C(c1cccs1)C1CCC(NC(=O)COC2CCCN(S(=O)(=O)c3ccccc3)C2)CC1` (stereo not drawn) [Example 42, N-(4-((dimethylamino)(thiophen-2-yl)methyl)cyclohexyl)-2-(1-(phenylsulfonyl)piperidin-3-yloxy)acetamide]: the inhibition at 10 µM was -14% in assay [1] (CHO-K1, read-out: B1R Ant. h [10 μM] % Inhibition) and -17% in assay [2] (CHO-K1, read-out: B1R Ant. r [10 μM] % Inhibition).
As for `CN(C)C(c1cccs1)C1CCC(CNC(=O)COC2CCN(S(=O)(=O)c3ccc(Cl)cc3)C2)CC1` (stereo not drawn) [Example 54, 2-(1-(4-chlorophenylsulfonyl)pyrrolidin-3-yloxy)-N-((4-((dimethylamino)(thiophen-2-yl)methyl)cyclohexyl)methyl)acetamide], the figures for the inhibition at 10 µM in assay [1] (setting [3]) and in assay [2] (setting [4]) were 10% and -20%, respectively.
With `CN(C)C(c1ccccc1)C1CCC(CNC(=O)COC2CCN(S(=O)(=O)c3ccc(Cl)cc3)C2)CC1` (stereo not drawn) [Example 81, 2-(1-(4-chlorophenylsulfonyl)pyrrolidin-3-yloxy)-N-((4-((dimethylamino)(phenyl)methyl)cyclohexyl)methyl)acetamide], the inhibition at 10 µM in assay [1] (setting [3]) is -10%; in assay [2] (setting [4]), 5%.
The matching figures for `CN(C)C(c1cccs1)C1CCC(CCNC(=O)COCCN(C)S(=O)(=O)c2ccc(F)cc2)CC1` (stereo not drawn) [Example 85, N-(2-(4-((dimethylamino)(thiophen-2-yl)methyl)cyclohexyl)ethyl)-2-(2-(4-fluoro-N-methylphenylsulfonamido)ethoxy)acetamide]: 7% and 12%.
On the same counts, the results for `COc1cc(C)c(S(=O)(=O)N2CCC(OCC(=O)NCC3CCC(C(c4ccccc4)N(C)C)CC3)C2)c(C)c1C` (stereo not drawn) [Example 44, N-((4-((dimethylamino)(phenyl)methyl)cyclohexyl)methyl)-2-(1-(4-methoxy-2,3,6-trimethylphenylsulfonyl)pyrrolidin-3-yloxy)acetamide] are 46% and 22%.
In the case of `CN(C)C(c1cccs1)C1CCC(CCNC(=O)COC2CCN(S(=O)(=O)c3ccc(Cl)cc3)C2)CC1` (stereo not drawn) [Example 66, 2-(1-(4-chlorophenylsulfonyl)pyrrolidin-3-yloxy)-N-(2-(4-((dimethylamino)(thiophen-2-yl)methyl)cyclohexyl)ethyl)acetamide], the inhibition at 10 µM in assay [1] (setting [3]) is -1%; in assay [2] (setting [4]), 30%.
For `COc1ccc(S(=O)(=O)N2CCCCC2COCC(=O)NCC2CCC(C(c3cccs3)N(C)C)CC2)c(OC)c1` (stereo not drawn) [Example 49, 2-((1-(2,4-dimethoxyphenylsulfonyl)piperidin-2-yl)methoxy)-N-((4-((dimethylamino)(thiophen-2-yl)methyl)cyclohexyl)methyl)acetamide], the inhibition at 10 µM in assay [1] (setting [3]) came to 2%; in assay [2] (setting [4]), 23%.
The matching figures for `CN(C)C(c1cccs1)C1CCC(CNC(=O)COCCN(C)S(=O)(=O)c2ccc(OC(F)(F)F)cc2)CC1` (stereo not drawn) [Example 93, N-((4-((dimethylamino)(thiophen-2-yl)methyl)cyclohexyl)methyl)-2-(2-(N-methyl-4-(trifluoromethoxy)phenylsulfonamido)ethoxy)acetamide]: -2% and 6%.
On to `COc1ccc(S(=O)(=O)N(C)CCOCC(=O)NC2CCC(C(c3cccs3)N(C)C)CC2)cc1` (stereo not drawn) [Example 73, N-(4-((dimethylamino)(thiophen-2-yl)methyl)cyclohexyl)-2-(2-(4-methoxy-N-methylphenylsulfonamido)ethoxy)acetamide], for which the inhibition at 10 µM is 11% in assay [1] (setting [3]) and 29% in assay [2] (setting [4]).
The matching figures for `Cc1ccc(S(=O)(=O)N(C)CCOCC(=O)NCCC2CCC(C(c3cccs3)N(C)C)CC2)cc1` (stereo not drawn) [Example 82, N-(2-(4-((dimethylamino)(thiophen-2-yl)methyl)cyclohexyl)ethyl)-2-(2-(N,4-dimethylphenylsulfonamido)ethoxy)acetamide]: -2% and -1%.
In the case of `CN(C)C(c1cccs1)C1CCC(CNC(=O)COC2CCN(S(=O)(=O)c3ccccc3)C2)CC1` (stereo not drawn) [Example 36, N-((4-((dimethylamino)(thiophen-2-yl)methyl)cyclohexyl)methyl)-2-(1-(phenylsulfonyl)pyrrolidin-3-yloxy)acetamide], the inhibition at 10 µM in assay [1] (setting [3]) is -11%; in assay [2] (setting [4]), 3%.
On the same counts, the results for `COc1ccc(S(=O)(=O)N2CCC(OCC(=O)NCCC3CCC(C(c4cccs4)N(C)C)CC3)C2)cc1OC` (stereo not drawn) [Example 94, 2-(1-(3,4-dimethoxyphenylsulfonyl)pyrrolidin-3-yloxy)-N-(2-(4-((dimethylamino)(thiophen-2-yl)methyl)cyclohexyl)ethyl)acetamide] are -5% and 21%.
With `COc1cc(C)c(S(=O)(=O)N2CCN(CCOCC(=O)NC3CCC(C(c4cccc(F)c4)N(C)C)CC3)CC2)c(C)c1C` (stereo not drawn) [Example 76, N-(4-((dimethylamino)(3-fluorophenyl)methyl)cyclohexyl)-2-(2-(4-(4-methoxy-2,3,6-trimethylphenylsulfonyl)piperazin-1-yl)ethoxy)acetamide], the inhibition at 10 µM was 52% in assay [1] (setting [3]) and -7% in assay [2] (setting [4]).
The matching figures for `COc1cc(C)c(S(=O)(=O)N2CCC(OCC(=O)NC3CCC(C(c4cccs4)N(C)C)CC3)C2)c(C)c1C` (stereo not drawn) [Example 43, N-(4-((dimethylamino)(thiophen-2-yl)methyl)cyclohexyl)-2-(1-(4-methoxy-2,3,6-trimethylphenylsulfonyl)pyrrolidin-3-yloxy)acetamide]: 37% and 21%.
The matching figures for `CN(C)C(c1cccs1)C1CCC(CNC(=O)COCCN(C)S(=O)(=O)c2cccc(C(F)(F)F)c2)CC1` (stereo not drawn) [Example 92, N-((4-((dimethylamino)(thiophen-2-yl)methyl)cyclohexyl)methyl)-2-(2-(N-methyl-3-(trifluoromethyl)phenylsulfonamido)ethoxy)acetamide]: 31% and 1%.
Turning to `CN(C)C(c1cccs1)C1CCC(CCNC(=O)COCCN(C)S(=O)(=O)c2ccc(OC(F)(F)F)cc2)CC1` (stereo not drawn) [Example 65, N-(2-(4-((dimethylamino)(thiophen-2-yl)methyl)cyclohexyl)ethyl)-2-(2-(N-methyl-4-(trifluoromethoxy)phenylsulfonamido)ethoxy)acetamide], the inhibition at 10 µM was found to be 12% in assay [1] (setting [3]) and 18% in assay [2] (setting [4]).
On the same counts, the results for `CN(C)C(c1cccc(F)c1)C1CCC(CCNC(=O)COCCN(C)S(=O)(=O)c2c(Cl)cccc2Cl)CC1` (stereo not drawn) [Example 41, 2-(2-(2,6-dichloro-N-methylphenylsulfonamido)ethoxy)-N-(2-(4-((dimethylamino)(3-fluorophenyl)methyl)cyclohexyl)ethyl)acetamide] are 91% and 54%.
As for `COc1ccc(S(=O)(=O)N2CCCCC2CCOCC(=O)NCC2CCC(C(c3cccs3)N(C)C)CC2)cc1` (stereo not drawn) [Example 90, N-((4-((dimethylamino)(thiophen-2-yl)methyl)cyclohexyl)methyl)-2-(2-(1-(4-methoxyphenylsulfonyl)piperidin-2-yl)ethoxy)acetamide], the inhibition at 10 µM in assay [1] (setting [3]) stood at 49%; in assay [2] (setting [4]), 37%.
